Measurements taken from a melting point compilation (Tetko et al.).

SMILES	melting point
NCc1ccc2nccn2c1	97 to 99 °C
FC(F)(Cl)CBr	-76 °C
CSCCC(N)CO (stereo not given)	31 to 36 °C
CCOC(=O)c1ccc2c(c1)nnn2C	105 to 108 °C
Cc1nc(-c2cc(CO)no2)cs1	120 °C
CC(Br)C(=O)c1ccc(Br)cc1 (stereo not given)	85 to 88 °C
CC[N+](CC)(CC)S(=O)(=O)[N-]C(=O)OC	77 °C
COc1cc(C(=O)OCCCN(C)CCN(C)CCCOC(=O)c2cc(OC)c(OC)c(OC)c2)cc(OC)c1OC	76 °C
OCCCC1CCCCC1	-60 °C
O=C(O)C(C(F)(F)F)C(F)(F)F	52 °C
CON(C)C(=O)Nc1ccc(Br)cc1	95 °C
CC(CCC(=O)O)C1CCC2C3C(=O)CC4CC5(CCC4(C)C3CC(=O)C12C)OCCO5 (stereo not given)	222 °C
CNc1c(F)c(F)c(-c2c(F)c(F)c(F)c(F)c2F)c(F)c1F	72 °C
CN1C(=O)CCS(=O)(=O)C1c1ccc(Cl)cc1 (stereo not given)	116 °C
Cn1ncc(Br)c1C=O	70 °C
CCOP(=S)(OCC)SCC(=O)NC(C)C	28.5 °C
Clc1ccc2c(c1)Oc1cc(Cl)c(Cl)c(Cl)c1O2	172 °C
CCOC(=O)c1ccc(NC)c(N)c1	87 to 88 °C
CCC(C)CCCCO (stereo not given)	-104 °C
CCSC(SCC)C(OC(C)=O)C(OC(C)=O)C(OC(C)=O)C(COC(C)=O)OC(C)=O (stereo not given)	111 to 112 °C

SMILES	melting point
N[C@H](Cc1ccc(I)cc1)C(=O)O	251 °C
Oc1cccnc1Br	185 to 188 °C
CC12CCCCC1CCC1C2CCC2(C)C(OCc3ccccc3)CCC12 (stereo not given)	160 °C
CCOC(=O)Cc1n[nH]c2ccc(Cl)cc12	77 °C
Nn1c(S)nnc1C(F)(F)F	141 °C
CC(=O)OCC1(C)CCCC23COC4CC5C(C)C(=O)C6(C(CC12)OC(C)(C)OC56)C43 (stereo not given)	156 °C
Cc1cc(C(=O)O)cc(C(=O)O)c1	299 °C
NC(=NO)c1cccc(Cl)c1	115 to 117 °C
Cc1cc(C)c(Cc2c(C)cc(C)cc2C)c(C)c1	130 °C
C=C1C(=O)C23C4CC5C(C)(C)CCC(=O)C5(C(=O)O4)C2C(=O)CC1C3O (stereo not given)	250 °C
Nc1cccc(N)c1N	103 °C
CS(=O)(=O)CC(=O)O	117 °C
ClCc1noc(-c2ccsc2)n1	69 to 70 °C
Sc1cc(Cl)cc(Cl)c1	59 to 61 °C
CC(CC(=O)O)c1ccc(C(=O)O)cc1 (stereo not given)	227 to 229 °C
CC(C)C1CCCCC1=O (stereo not given)	72.5 °C
Oc1c(Cl)c(Cl)cc(Cl)c1Cl	115 °C
CC(=O)OCC#CCOC(C)=O	28 °C
Cc1nc(-c2ccc(N)cc2)no1	113 to 114 °C
COC(=O)c1c(C=O)c(C)n(C)c1C	124 to 127 °C

SMILES	melting point
COP(=S)(OC)Oc1cc(Cl)c(Br)cc1Cl	53.5 °C
Cc1ccc(F)cc1C#N	43 to 45 °C
CC(=O)C=CC1C(C)=CCC(C)C1(C)C (stereo not given)	< 25 °C
O=C(c1ccc(C(=O)C(Cl)Cl)cc1)C(Cl)Cl	143 °C
Cc1c(N)cccc1O	127 to 133 °C
ClC(Cl)(Br)C(Cl)(Cl)Br	220 to 222 °C
CC(C)(C)NC(=O)C(C(F)(F)F)C(F)(F)F	201 °C
O=C1CCCCC1Cl (stereo not given)	23 °C
C/C=C/C(=O)N1C(=O)OC[C@@H]1C(C)C	56 °C
C=CCN(CC=C)c1c(C)cc(OC(=O)NC)cc1C	67 °C
NNc1ccc(Cl)nn1	137 °C
C1COC1	-97 °C
O=C(Cl)c1ccsc1Br	61 to 62 °C
C[C@@H]1CNCCN1	86 to 91 °C
CC(=O)Nc1ccc(Cl)cc1[N+](=O)[O-]	98 °C
c1ccc(N2CCN(c3ccccc3)CC2)cc1	165 °C
CC(C)(C)c1cc2c(O)c(c1)Cc1cc(C(C)(C)C)cc(c1O)Cc1cc(C(C)(C)C)cc(c1O)Cc1cc(C(C)(C)C)cc(c1O)C2	300 °C
NCc1ccccn1	-20 °C
CCCCCCCCCCCCCCCCCCCCCC(=O)OC	54 °C
N#Cc1cc([N+](=O)[O-])ccc1Sc1nnc(N)s1	245 to 246 °C

Other lines, results leading:

melting point	SMILES
137 to 139 °C	CC(=O)OC1CC[C@@]2(C)C(CC[C@@H]3[C@@H]2CC[C@@]2(C)[C@H]3CC[C@]2(O)CCc2ccccc2)C1 (stereo not given in full)
210 °C	COc1cc(OC)c2cc(C(=O)c3cccc4ccccc34)c(=O)oc2c1
145 to 147 °C	CC1(C)CC(=O)c2cc(-c3ccccc3)n(-c3cccc(C(F)(F)F)c3)c2C1
38 to 40 °C	CC(=O)c1ccccc1OCc1ccccc1
123 to 126 °C	O=C1OC(=O)c2c(Cl)cccc21
30 °C	O=C(Cl)/C=C/c1cccc(C(F)(F)F)c1
176 °C	COc1ccc(C(=O)c2noc(-c3ccc([N+](=O)[O-])cc3)c2S(=O)(=O)c2ccccc2)cc1
93 °C	COc1ccc2c(c1)CC1(CCC(=O)CC1)C2=O
340 °C	O=C1c2ccc(O)c(O)c2C(=O)c2ccc(O)c(O)c21
300 °C	NCc1ccc(C(=O)O)cc1
86 °C	OC(CCN1CCCC1)(c1ccccc1)C1CCCCC1 (stereo not given)
294 °C	N#C/C(=C/c1cccc(O)c1)c1nc2ccccc2c(=O)[nH]1
118 to 119 °C	CC(=O)/C=C/c1oc2ccc(Cl)cc2c1-c1ccc(C)o1
239 °C	O=c1[nH]c(-c2ccccc2)cc2ccncc12
110 °C	C#CC1(O)c2ccccc2-c2ccccc21
211 °C	Cc1cccc(N/N=C(\C#N)c2nc(C)c(/N=N/c3ccccc3)s2)c1
109 to 110 °C	O=Cc1ccc(-c2cc(C(F)(F)F)cc(C(F)(F)F)c2)o1
139 to 145 °C	CC(OC(=O)c1ccc([N+](=O)[O-])cc1)c1cccc(C(C)OC(=O)c2ccc([N+](=O)[O-])cc2)c1 (stereo not given)
284 °C	CC(=O)Nc1ccc(N=Nc2cc(C(C)C)c(N=Nc3ccc(NC(C)=O)cc3)cc2C)cc1
258 °C	O=C1C(C(O)c2ccccc2)C(C(F)(F)F)=NN1c1ccccc1 (stereo not given)
48 to 49 °C	Cn1nc(-c2ccccc2)cc1CN
97 to 98.5 °C	CSc1cc(-c2ccc(Oc3ccccc3)cc2)n[nH]1

melting point	SMILES
48 to 49.5 °C	CCOC(=O)c1cc(-c2ccccc2)on1
162 to 165 °C	COc1ccc2[nH]c(C)c(CC(=O)O)c2c1
-20.6 °C	CCc1ccc(C(C)=O)cc1
200 °C	CCOC(=O)c1nn(-c2ccc(C)cc2)c(C)c1C(=O)C1=NOC2C(=O)N(c3ccccc3C)C(=O)C12 (stereo not given)
98 °C	Cc1ccc(C(O)c2cc(C)ccc2O)cc1 (stereo not given)
126 °C	COc1ccccc1C1Nn2c(COc3ccccc3)nnc2S1 (stereo not given)
113 to 115 °C	O=C(Oc1c(F)c(F)c(F)c(F)c1F)c1ccc(-c2ccccc2)nc1
185 to 188 °C	O=C(O)c1ccc2c(c1)CCO2
151 to 153 °C	Cc1ccc(S(=O)(=O)c2ncsc2SCc2ccc(Cl)cc2)cc1
142 °C	N#Cc1c(-c2ccccc2)c2c(O)[nH]n(-c3ccccc3)c-2nc1=S
250 °C	Cc1nc2ccccc2n1CCc1nnc(S)n1N=Cc1ccccc1Cl
108 to 112 °C	O=C(O)c1cccc(Oc2ccccn2)c1
156 °C	N#CC(=CNc1ccccc1)c1ccccc1
86 °C	COc1cccc(N(C)C(=S)Oc2cccc(C(C)(C)C)c2)n1
86 to 89 °C	COC(=O)c1ccc(Oc2cc(Cl)cc(Cl)c2)o1
55 °C	CCN(C(C)=O)c1ccccc1
179 °C	CC(=O)n1c(-c2ccccc2)c(O)c2ccc([N+](=O)[O-])cc21
185 to 186 °C	Cc1nc(-c2cccc(-n3cccc3)c2)sc1C(=O)NN
198 to 202 °C	N#CCC(=O)Nc1ccccc1
113 °C	CC(=O)Oc1cc(C)c(OC(C)=O)c2ccccc12
-60 °C	CCC(=O)OC(C)c1ccccc1 (stereo not given)
129 °C	COc1ccc(O)c2ccccc12

melting point	SMILES
37 °C	O=S(=O)(Cl)c1ccc(C(F)(F)F)cc1Cl
51 °C	COc1cc(CCN(Cc2cccc(O)c2)C(=O)C(F)(F)F)ccc1O
118 °C	CC12CCC(C1(C)C)C(CC(Br)=Cc1ccccc1)(C1(CC(Br)=Cc3ccccc3)C(=O)C3(C)CCC1C3(C)C)C2=O (stereo not given)
217 °C	CNc1ccc(O)c2c1C(=O)c1c(O)ccc(NC)c1C2=O
90 to 93 °C	O=S(=O)(c1ccccc1)n1ccc2cc(Br)ccc21
103 to 104 °C	O=Cc1csc(-c2cccc(Cl)c2)n1
179 °C	O=C(O)C=Cc1ccccc1F
87.5 °C	COc1ccccc1NC(C)=O
168 °C	CC1=NOC(=O)C1=NNc1ccccc1Cl
78 to 79 °C	N#CCc1ccc(OCc2c(F)cccc2Cl)cc1
57 to 58 °C	O=Cc1ccc(-c2cccs2)s1
-75 °C	CCC(C)c1ccccc1 (stereo not given)
118 °C	CC1(C(=O)O)CCC(CCc2ccccc2)C1(C)C (stereo not given)
47.5 °C	Cc1ccc(-c2ccccc2)s1
63 to 64 °C	CCOC(=O)c1cc(-c2ccco2)n(C)n1
89 to 90 °C	Cn1nc2ccccc2c1C(=O)Cl
99 to 102 °C	O=C(Cl)c1cc2cc(Br)ccc2s1
107 to 108 °C	Cc1ccc(-c2ccc(S(=O)(=O)Cl)cc2)cc1
300 °C	S=c1oc(-c2cc3ccccc3o2)nn1CCl
178 °C	c1ccc(Cc2ccc3c4ccccc4c4ccccc4c3c2Cc2ccccc2)cc1
223 °C	O=C(O)/C(=C/c1ccc([N+](=O)[O-])cc1)c1ccccc1C(=O)O
